Laboratory results taken from article PMC9564220, “Dipeptidyl peptidase-4 inhibitory potentials of Glycyrrhiza uralensis and its bioactive compounds licochalcone A and licochalcone B: An in silico and in vitro study” (Frontiers in Molecular Biosciences, 2022).

Molecular target: T1, Dipeptidyl peptidase-4 (DPP-4) (Homo sapiens, UniProt P27487)
T1 construct: gene DPP4
Assay: fluorescence DPP-4 inhibitor screening kit (Sigma Aldrich), kinetic mode
Assay type: biochemical

T1 sequence (P27487 whole entry): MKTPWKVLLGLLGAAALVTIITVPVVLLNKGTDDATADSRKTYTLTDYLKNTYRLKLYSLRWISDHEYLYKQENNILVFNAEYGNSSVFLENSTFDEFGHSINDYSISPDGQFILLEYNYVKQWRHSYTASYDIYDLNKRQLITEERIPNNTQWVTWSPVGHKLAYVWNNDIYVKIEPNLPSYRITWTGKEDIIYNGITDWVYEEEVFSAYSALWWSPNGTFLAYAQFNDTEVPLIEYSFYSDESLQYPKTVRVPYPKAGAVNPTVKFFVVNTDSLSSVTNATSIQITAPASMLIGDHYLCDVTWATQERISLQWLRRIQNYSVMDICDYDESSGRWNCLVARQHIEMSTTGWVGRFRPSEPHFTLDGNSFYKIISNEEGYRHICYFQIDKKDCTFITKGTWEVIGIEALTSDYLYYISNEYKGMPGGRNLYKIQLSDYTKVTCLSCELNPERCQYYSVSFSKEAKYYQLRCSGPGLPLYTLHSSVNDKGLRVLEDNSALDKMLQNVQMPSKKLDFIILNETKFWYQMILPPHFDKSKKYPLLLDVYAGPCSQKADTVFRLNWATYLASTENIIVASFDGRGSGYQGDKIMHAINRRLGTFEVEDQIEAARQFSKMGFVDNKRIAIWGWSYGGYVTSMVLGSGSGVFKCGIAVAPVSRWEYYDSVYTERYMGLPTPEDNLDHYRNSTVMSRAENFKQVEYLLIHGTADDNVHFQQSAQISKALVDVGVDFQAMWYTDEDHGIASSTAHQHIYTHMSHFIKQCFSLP

Work on `C=CC(C)(C)c1cc(/C=C/C(=O)c2ccc(O)cc2)c(OC)cc1O` [LicA, licochalcone A] yielded an IC50 of about 348 µM.
With `COc1c(/C=C/C(=O)c2ccc(O)cc2)ccc(O)c1O` [LicB, licochalcone B] the IC50 was about 798 µM.
